Laboratory results reported in patent US20260137662A1, “CD11B AGONISTS FOR TREATMENT OF AUTOIMMUNE DISEASE” (Rush University Medical Center, priority 2022, published 2026).

How the values were obtained:
[1] = system: BMDMs from C57BL/6 wild type mice (WT); test: Biomarker secretion from IMQ-treated bone marrow derived macrophages of wild type mice; format: cell-based; conditions: WT cells, IMQ (20 ug/mL) and LA1 (20 uM) co-treatment, 4 hours
Method: (§1) FIG. 7A illustrates levels of biomarker IL-6 secretion in bone marrow derived macrophages (BMDMs) from C57BL/6 wild type (WT) mice, mice with global deletion of CD11b (KO), or C57BL/6 mice expressing CD11b with a point mutation (KI), the macrophages treated for 4 hours with vehicle DMSO (UT), LA1 (20 uM), IMQ (20 ug/mL), or IMQ and LA1 co-treatment. Bars show mean with SD (N=3) (*P<0.05, **P<0.01, ***P<0.001, ****P<0.0001).
as §1, with “7B” for “7A”, “IL-1b” for “IL-6”
as §1, with “7C” for “7A”, “suPAR” for “IL-6”
as §1, with “7D” for “7A”, “IFNb” for “IL-6”
Bone marrow derived macrophages (BMDMs) from C57BL/6 wild type mice (WT), mice with global deletion of CD11b (KO), and C57BL/6 mice expressing CD11b with a point mutation (KI), as described previously (Martinez et al., 2020) were used to evaluate the effect of pharmacologic activation of CD11b by LA1 or genetic activation of CD11b on TLR-pathway dependent biomarkers. BMDMs from WT, KO, and KI mice were left untreated, treated with LA1, treated with IMQ, or co-treated with LA1 and IMQ and levels of biomarkers IL-1b, suPAR, IL-6 and IFN-b were measured 4 hours after treatment.

[2] = system: IMQ-induced mouse model of lupus; test: IMQ-induced mouse model of lupus, LA1 started 0, 2 or 4 weeks after disease induction; format: in vivo, wild type C57BL/6 mice
Method: FIG. 12A illustrates levels of anti-dsDNA antibodies measured weekly in mice co-treated with IMQ and LA1 (30 mg/kg, BID) for 8 weeks. Each dot represents mean +/−SEM (n=4).
FIG. 12B illustrates levels of anti-dsDNA antibodies measured weekly in mice treated with IMQ for 8 weeks starting at week 0 and additionally treated with LA1 (30 mg/kg, BID) for 6 weeks, starting at week 2. Each dot represents mean +/−SEM (n=4).
FIG. 12C illustrates levels of anti-dsDNA antibodies measured weekly in mice treated with IMQ for 8 weeks starting at week 0 and additionally treated with LA1 (30 mg/kg, BID) for 4 weeks, starting at week 4. Each dot represents mean +/−SEM (n=4).
FIG. 12D illustrates levels of biomarker suPAR measured weekly in mice co-treated with IMQ and LA1 (30 mg/kg, BID) for 8 weeks. Each dot represents mean +/−SEM (n=4).
FIG. 12E illustrates levels of biomarker suPAR measured weekly in mice treated with IMQ for 8 weeks starting at week 0 and additionally treated with LA1 (30 mg/kg, BID) for 6 weeks, starting at week 2. Each dot represents mean +/−SEM (n=4).
FIG. 12F illustrates levels of biomarker suPAR measured weekly in mice treated with IMQ for 8 weeks starting at week 0 and additionally treated with LA1 (30 mg/kg, BID) for 4 weeks, starting at week 4. Each dot represents mean +/−SEM (n=4).
FIG. 12G illustrates an experimental timeline for the measurement of anti-dsDNA antibody and suPAR levels in mice treated with IMQ and LA1 for 8 weeks, the LA1 treatment initiated at various time points.
To assess therapeutic efficacy of LA1 in a TLR7-dependent SLE murine model, an IMQ-induced mouse model of lupus (Yokogawa et al., 2014) was used. To induce disease, wild type C57BL/ 6 mice (WT) were treated with IMQ cream (Aldara) over the course of 8 weeks. IMQ-induced mice were then treated with LA 1, the treatment initiated at 0, 2, and 4 weeks after disease induction, as shown in FIG. 12G. Anti-dsDNA antibody and suPAR levels were measured in the murine serum at various time points during treatment.

[3] = LA1 30 mg/kg BID co-treated with IMQ for 8 weeks (start week 0)
[4] = LA1 30 mg/kg BID started four weeks after initial IMQ (after disease onset)
[5] = LA1 30 mg/kg BID started two weeks after initial IMQ (after disease onset)

O=C(O)c1ccc(-c2ccc(/C=C3\SC(=S)N(Cc4ccccc4)C3=O)o2)cc1 [LA1, (Z)-4-(5-((3-benzyl-4-oxo-2-thioxothiazolidin-5-ylidene)methyl)furan-2-yl)benzoic acid]
level of IFN-b in cell supernatant [1]: significantly suppressed | level of IL-1b in cell supernatant [1]: significantly suppressed | level of IL-6 in cell supernatant [1]: significantly suppressed | level of suPAR in cell supernatant [1]: significantly suppressed | anti-dsDNA antibody levels in serum [2, 3]: significantly reduced | suPAR levels in serum [2, 3]: significantly reduced | anti-dsDNA antibody levels in serum [2, 4]: significantly reduced | suPAR levels in serum [2, 4]: significantly reduced | anti-dsDNA antibody levels in serum [2, 5]: significantly reduced | suPAR levels in serum [2, 5]: significantly reduced
